Experimental data: publication PMC9456491, “Targeting the Mitochondrial Protein VDAC1 as a Potential Therapeutic Strategy in ALS” (International Journal of Molecular Sciences, 2022)

Assays:
[1] = test system: SH-SY5Y neuronal cells expressing mutant SOD1^G93A or SOD1^G37R; assay: Rescue of mutant SOD1-induced cell death in transfected SH-SY5Y cells; type: cell-based; conditions: 4.5 × 10^4 cells/well, transfected with SOD1^G93A or SOD1^G37R, peptide 20 µM, 5 h, 24 h post-transfection, triplicates, n = 3, means ± SEM
Method: Figure 1 Identification of VDAC1 interacting sites in SOD1. (A) SH-SY5Y cells (4.5 × 10^4 cells/well in 24-well plates) were transfected with an empty plasmid or a plasmid encoding for mutant SOD1^G93A or SOD1^G37R. Then, 24 h post-transfection, the cells were incubated for 5 h with (10-20)N-Ter-Antp peptide (20 µM) and then analyzed for cell death. The results are from triplicates of different biological repeats (n = 3) and are presented as the means ± SEM. * p < 0.05. (B) Schematic presentation of peptide arrays and detection of VDAC1-interacting peptides. (C) Glass-bound peptide array consisting of 768 overlapping peptides derived from 19 VDAC1-interacting proteins were incubated for 4 h with purified VDAC1 (64 nM) and then blotted with anti-VDAC1 antibodies against an internal sequence (1:5000) or with antibodies against the VDAC1-N-terminus, followed by incubation with HRP-conjugated anti-mouse IgG and detection using a chemiluminescence kit. […]
SH-SY5Y and NSC-34 cells were grown at 37 °C and with 5% CO2 in Dulbecco’s modified Eagle medium (DMEM) supplemented with 10% tetracycline-free fetal bovine serum (FBS), L-Glutamine (2 mM), and penicillin (100 U/mL)/streptomycin (0.1 mg/mL). […] According to the manufacturer’s protocol, cell viability was analyzed using the CellTiter 96 AQueous one-solution cell proliferation assay (Promega) and plate reader at 490 nm.

[2] = ref [32]; cited from earlier work
Excerpt: In order to test whether a VDAC1-derived N-terminal peptide can rescue mutant SOD1 toxicity, we expressed two different SOD1 mutants (SOD1^G93A or SOD1^G37R) in SH-SY5Y neuronal cells. These expressed SOD1 mutant proteins decreased cell survival compared to control cells. […] It is important to note that in this peptide, the last six residues f ...

[3] = test system: VDAC1 interaction with SOD1-derived peptides (spots 1C16 and 1C17); assay: Inhibition of VDAC1 interaction with SOD1-derived peptides on peptide array; type: binding, rat; conditions: VDAC1 64 nM pre-incubated 1 h with 160 nM SOD1 protein, then 4 h with array; for inhibition of VDAC1 interaction with 1C17 peptide: spot 1C17; for decrease of VDAC1 interaction with both SOD1-derived peptides 1C16 and 1C17: spots by Image J
Method: Figure 2 VDAC1 interaction with SOD1-derived peptides is reduced by WT and mutant SOD1. VDAC1 (64 nM) was pre-incubated for 1 h without (A) or with 160 nM of SOD1^WT (B), SOD1^G93A (C), or SOD1^G85R (D), followed by incubation for 4 h with the peptide array and then blotted with anti-VDAC1 antibodies, as in Figure 1C. SOD1-derived sequences are circled. […] (G) Pull down with anti-SOD1 antibody was performed by incubating recombinant VDAC1 and SOD1 proteins (2 µg each) with increasing concentrations of SOD1-derived peptide (0, 5, 15, and 30 µM). Immunoblotting was used to determine the levels of SOD1^G93A and VDAC1 in the bound and unbound fraction of each immunoprecipitation experiment. […] (H) Quantification of immunoblotting bands with ImageJ software. Quantification analysis of the relative VDAC1 intensity was performed with one-way ANOVA. Bars represent mean ± SEM. TEXT PRINTED IN THE PICTURE: (F) SOD1-derived peptide: Kd= 4 μM
Customized 768-peptide sequences derived from 19 VDAC1-interacting proteins produced by INTAVIS Peptide Services (GmbH & Co. KG, Tübingen, Germany) were arrayed on a glass slide. The interaction of purified VDAC1 with glass-bound peptide arrays (BGUN_SB-002) was assessed by slide washing with TBST buffer (150 mM NaCl, 50 mM Tris/HCl, pH 7.4, and 0.1% Tween-20), followed by overnight incubation with blocking buffer (Tris-buffered saline, pH 7.8, containing 2.5% low-fat milk, w/v) at 4 °C. Next, the peptide array glass slides were incubated with purified VDAC1 (64 nM) in 400 µL of protein-interacting buffer (20 mM HEPES, 100 mM KCl, pH,7.4, PBS) at room temperature for 4 h in a humidified chamber. Then, the peptide array glass slides were washed (three times, 10 min each) with TBST and incubated overnight at 4 °C with anti-VDAC1 antibody against an internal sequence (ab15895) or against the N-terminus (ab154856) (1:5000). The peptide array glass slides were washed with 0.1% Tween-20 in TBS buffer/Tris-buffered saline (150 mM NaCl, 50 mM Tris/HCl, pH 7.4 TBST), followed by incubation for 2 h at RT with HRP-conjugated anti-mouse or anti-rabbit (1:10,000) or anti-goat (1:20,000) IgG as a secondary antibody. Enhanced chemiluminescent substrate (Pierce Chemical, Rockford, IL, USA) was used to detect HRP. The signal was captured in the dark using FUSION-FX (Vilber Lourmat) software.
The VDAC1 protein was purified from rat liver mitochondria, as previously described. Briefly, rat liver mitochondria (5 mg/mL) in 10 mM Tris-HCl, pH 7.2, were incubated with 2% LDAO on ice for 20 min, followed by centrifugation (30 min, 14,000× g), and the obtained supernatant was loaded onto a dry celite:hydroxyapatite (2:1) column. VDAC1 was eluted with a solution containing 2% LDAO, 10 mM Tris-HCl, pH 7.2, 50 mM NaCl, and 22 mM NaH2PO4. The VDAC1-containing fractions were dialyzed against 10 mM Tris-HCl, pH 7.2, and subjected to a second chromatography step on a carboxymethyl-cellulose (CMC) column from which VDAC1 was eluted with a solution containing 10 mM Tris-HCl, pH 7.2, 0.3% LDAO, and 500 mM NaCl. The VDAC1-containing fractions were collected and used for VDAC1 channel conductance and microscale thermophoresis (MST) assays.
Recombinant SOD1^WT, SOD1^G93A, and SOD1^G85R were purified as previously described. Briefly, the proteins were expressed as 6His-tagged (N-term) soluble proteins in BL21 cells, and the expression of the recombinant proteins was induced by addition of 0.5 mM IPTG, following purification using a 5mL HisTrap FF column (GE Healthcare, Chicago, IL, USA). The peak fractions were dialyzed overnight at 4 °C against a storage buffer (50 mM Na^+/phosphate, pH 7.6, 0.1 M NaCl, and 10% glycerol), concentrated by ultrafiltration (10 kDa cutoff, Millipore, USA), centrifuged at 110,000× g at 4 °C for 1 h using ultracentrifuge (Sorvall M120 Discovery, Waltham, MA, USA), and stored at −20 °C until use. […]

| Substance | rescue of mutant SOD1-induced toxicity (cell survival) [1] | cell death activity [2] | inhibition of VDAC1 interaction with 1C17 peptide [3] | decrease of VDAC1 interaction with both SOD1-derived peptides 1C16 and 1C17 [3] | inhibition of VDAC1 interaction with 1C16 peptide ([3]; spot 1C16) |
| --- | --- | --- | --- | --- | --- |
| 1-MAVPPTYADLGKSARDVFTK-20-RQIKIWFQNRRMKWKK [(10–20)-N-Ter-Antp, VDAC1-N-terminus-derived peptide] | rescued mutant SOD1-induced toxicity increasing SH-SY5Y cell survival | lost its cell death activity |  |  |  |
| SOD1^G85R: recombinant dismutase inactive SOD1 mutant, 6His-tagged (N-term) |  |  | at a similar level | decreased the VDAC1 interaction with both SOD1-derived peptides |  |
| SOD1^G93A: recombinant dismutase active SOD1 mutant, 6His-tagged (N-term) |  |  | at a similar level | decreased the VDAC1 interaction with both SOD1-derived peptides | prevented the interaction of VDAC1 with the 1C16 peptide better than SOD1^WT and SOD1^G85R |
| SOD1^WT: recombinant wild type SOD1, 6His-tagged (N-term) |  |  | at a similar level | decreased the VDAC1 interaction with both SOD1-derived peptides |  |
